In US20240158446A1, “CYCLIC COMPOUND HAVING SELECTIVE INHIBITORY ACTION ON KRAS OVER HRAS AND NRAS” (CHUGAI SEIYAKU KABUSHIKI KAISHA, priority 2021, published 2024):
Where two headings read alike, the source gives them in different places.

How the values were obtained:
[1] = tested on: human lung cancer strain NCI-H441;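 further: cell proliferation inhibition after four days measured by CellTiter-Glo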
[2] = target: GDP-bound NRAS wild-type protein (Homo sapiens, UniProt P01111); test: Binding to NRAS by surface plasmon resonance (SPR), Single Cycle Kinetics; conditions: for NRAS/KRAS (ratio of KD value with respect to GDP-bound NRAS wild-type protein to KD value with respect to KRAS): SPR KD ratio NRAS/KRAS, class symbols
GDP-bound NRAS wild-type protein, sequence (P01111 whole entry): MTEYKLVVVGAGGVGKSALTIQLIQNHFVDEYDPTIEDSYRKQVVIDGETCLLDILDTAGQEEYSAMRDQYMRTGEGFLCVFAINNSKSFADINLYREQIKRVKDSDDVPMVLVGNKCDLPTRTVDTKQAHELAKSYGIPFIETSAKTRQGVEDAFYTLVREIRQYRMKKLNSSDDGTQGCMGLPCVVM

[3] = target: GDP-bound KRAS wild-type protein (Homo sapiens, UniProt P01116); test: Binding to KRAS by surface plasmon resonance (SPR), Single Cycle Kinetics; conditions: GDP-bound KRAS wild-type protein, read-out: KRAS KD
GDP-bound KRAS wild-type protein, sequence (P01116 whole entry): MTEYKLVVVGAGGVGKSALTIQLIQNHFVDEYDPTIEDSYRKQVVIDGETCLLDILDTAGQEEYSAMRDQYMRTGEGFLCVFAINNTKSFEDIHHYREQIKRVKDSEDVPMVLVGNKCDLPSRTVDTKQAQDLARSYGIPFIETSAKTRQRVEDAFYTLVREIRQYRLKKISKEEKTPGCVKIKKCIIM

[4] = target: GDP-bound HRAS wild-type protein (Homo sapiens, UniProt P01112); test: Binding to HRAS by surface plasmon resonance (SPR), Single Cycle Kinetics; conditions: for HRAS/KRAS (ratio of KD value with respect to GDP-bound HRAS wild-type protein to KD value with respect to KRAS): SPR KD ratio HRAS/KRAS, class symbols
GDP-bound HRAS wild-type protein, sequence (P01112 whole entry): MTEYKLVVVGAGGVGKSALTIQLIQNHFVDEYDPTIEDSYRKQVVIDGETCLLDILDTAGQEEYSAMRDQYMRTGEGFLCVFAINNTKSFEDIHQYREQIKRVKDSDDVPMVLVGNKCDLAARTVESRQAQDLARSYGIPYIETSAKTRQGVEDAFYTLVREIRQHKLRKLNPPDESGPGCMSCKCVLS

[5] = SPR Single Cycle Kinetics, 1:1 binding model
[6] = SPR, GDP-bound NRAS wild-type protein vs GDP-bound KRAS wild-type protein
[7] = SPR, GDP-bound HRAS wild-type protein vs GDP-bound KRAS wild-type protein
[8] = SPR, GDP-bound NRAS wild-type protein vs GDP-bound KRAS wild-type protein, KD ratio class
[9] = SPR, Single Cycle Kinetics, 1:1 binding model
[10] = SPR, GDP-bound HRAS wild-type protein vs GDP-bound KRAS wild-type protein, KD ratio class

| Structure (SMILES) | IC50 [1] | NRAS/KRAS (ratio of KD value with respect to GDP-bound NRAS wild-type protein to KD value with respect to KRAS) [2] | Kd [3, 5] | HRAS/KRAS (ratio of KD value with respect to GDP-bound HRAS wild-type protein to KD value with respect to KRAS) [4] | NRAS/KRAS (ratio of KD value for NRAS to KD value for KRAS) [2, 8] | Kd [3, 9] | HRAS/KRAS (ratio of KD value for HRAS to KD value for KRAS) [4, 10] | also measured |
| --- | --- | --- | --- | --- | --- | --- | --- | --- |
| CC[C@H](C)[C@@H]1NC(=O)[C@H](COC)N(C)C(=O)C[C@@H](C(=O)N(C)C)N(C)C(=O)[C@H](C2CCCC2)N(C)C(=O)C2(CC(C)(C)C2)NC(=O)[C@@H]2C[C@@H](OC3CCC3)CN2C(=O)[C@H](CCc2ccc(Cl)c(Cl)c2)NC(=O)CN(C)C(=O)[C@H](CC2CCC(F)(F)CC2)N2CC/C=C\C[C@@H](C2=O)N(C)C(=O)CN(C2CC2)C1=O [PP2624] | 174 nM | A (a compound having 10 or more and less than 20 is denoted as A) | 1.3 nM | A (a compound having 10 or more and less than 20 is denoted as A) | – | – | – | – |
| CCO[C@@H]1C[C@H]2C(=O)NC3(CCC3)C(=O)N(C)[C@@H](C3CCCC3)C(=O)N(C)[C@H](C(=O)N3CCOCC3)CC(=O)N(C)[C@@H](C)C(=O)N[C@@H]([C@@H](C)CC)C(=O)N(C)CC(=O)N(C)[C@H]3CCCCCN(C3=O)[C@@H](Cc3ccc(F)cc3)C(=O)N(C)CC(=O)N[C@@H](CCc3cc(F)c(C(F)(F)F)c(F)c3)C(=O)N2C1 [PP1175] | 23.5 nM | – | – | – | – | – | – | NRAS/KRAS (ratio of KD value for NRAS to KD value for KRAS) [2, 6]: B (a compound having 3 or more and less than 10 is denoted as B); Kd ([3]; SPR, Single Cycle Kinetics): 0.16 nM; HRAS/KRAS (ratio of KD value for HRAS to KD value for KRAS) [4, 7]: B (a compound having 3 or more and less than 10 is denoted as B) |
| CCOC[C@H]1C(=O)N[C@@H]([C@@H](C)CC)C(=O)N(C)CC(=O)N(C)[C@H]2C/C=C\CCN(C2=O)[C@@H](Cc2ccc(C(F)(F)F)cc2)C(=O)N(C)CC(=O)N[C@@H](CCc2cc(F)c(C(F)(F)F)c(F)c2)C(=O)N2C[C@H](OCC)C[C@H]2C(=O)NC2(CC(C)(C)C2)C(=O)N(C)[C@@H](CC(C)(C)C)C(=O)N(C)[C@H](C(=O)N(C)C)CC(=O)N1C [PP2732] | 5.3 nM | A (a compound having 10 or more and less than 20 is denoted as A) | 0.067 nM | A (a compound having 10 or more and less than 20 is denoted as A) | – | – | – | – |
| CCO[C@@H]1C[C@H]2C(=O)NC3(CC=CC3)C(=O)N(C)[C@@H](C3CCCC3)C(=O)N(C)[C@H](C(=O)N(C)C)CC(=O)N(C)[C@@H](C)C(=O)N[C@@H]([C@@H](C)CC)C(=O)N(C)CC(=O)N(C)[C@H]3CCCCCN(C3=O)[C@@H](Cc3ccc(C(F)(F)F)cc3)C(=O)N(C)CC(=O)N[C@@H](CCc3cc(F)c(C(F)(F)F)c(F)c3)C(=O)N2C1 [PP0724] | 127 nM | – | 0.44 nM | – | – | – | – | NRAS/KRAS (ratio of KD value with respect to NRAS to KD value with respect to KRAS) [2, 6]: B (a compound having 3 or more and less than 10 is denoted as B); HRAS/KRAS (ratio of KD value with respect to HRAS to KD value with respect to KRAS) [4, 7]: B (a compound having 3 or more and less than 10 is denoted as B) |
| CCC[C@H]1C(=O)N[C@@H]([C@@H](C)CC)C(=O)N(C)CC(=O)N(C)[C@H]2C/C=C\CCN(C2=O)[C@@H](Cc2ccc(C)cc2)C(=O)N(C)CC(=O)N[C@@H](CCc2ccc(Cl)c(Cl)c2)C(=O)N2C[C@H](OC(C)C)C[C@H]2C(=O)NC2(CC(C)(C)C2)C(=O)N(C)[C@@H](C(CC)CC)C(=O)N(C)[C@H](C(=O)N(C)C)CC(=O)N1C [PP2537] | 75.1 nM | AA (a compound having 20 or more is denoted as AA) | 0.74 nM | A (a compound having 10 or more and less than 20 is denoted as A) | – | – | – | – |
| CCOC[C@H]1C(=O)N[C@@H]([C@@H](C)CC)C(=O)N(C)CC(=O)N(C)[C@H]2C/C=C\CCN(C2=O)[C@@H](Cc2ccc(C)cc2)C(=O)N(C)CC(=O)N[C@@H](CCc2cc(F)c(C(F)(F)F)c(F)c2)C(=O)N2C[C@@H](C)C[C@H]2C(=O)NC2(CC(C)(C)C2)C(=O)N(C)[C@@H](C2CCCC2)C(=O)N(C)[C@H](C(=O)N(C)CC)CC(=O)N1C [PP2457] | 13.3 nM | – | – | – | – | – | – | NRAS/KRAS (ratio of KD value for NRAS to KD value for KRAS) [2, 6]: A (a compound having 10 or more and less than 20 is denoted as A); Kd ([3]; SPR, Single Cycle Kinetics): 0.17 nM; HRAS/KRAS (ratio of KD value for HRAS to KD value for KRAS) [4, 7]: A (a compound having 10 or more and less than 20 is denoted as A) |
| CCO[C@@H]1C[C@H]2C(=O)NC3(CCC3)C(=O)N(C)[C@@H](C(CC)CC)C(=O)N(C)[C@H](C(=O)N(C)C)CC(=O)N(C)[C@@H](CC)C(=O)N[C@@H]([C@@H](C)CC)C(=O)N(C)CC(=O)N(C)[C@H]3C/C=C\CCN(C3=O)[C@@H](Cc3ccc(C(F)(F)F)cc3)C(=O)N(C)CC(=O)N[C@@H](CCc3cc(F)c(Cl)c(F)c3)C(=O)N2C1 [PP1230] | 110 nM | – | – | – | A (a compound having 10 or more and less than 20 is denoted as A) | 0.77 nM | A (a compound having 10 or more and less than 20 is denoted as A) | – |
| CCO[C@@H]1C[C@H]2C(=O)NC3(CCC3)C(=O)N(C)[C@@H](C(CC)CC)C(=O)N(C)[C@H](C(=O)N3CCOCC3)CC(=O)N(C)[C@@H](CC(C)C)C(=O)N[C@@H]([C@@H](C)CC)C(=O)N(C)CC(=O)N(C)[C@H]3C/C=C\CCN(C3=O)[C@@H](Cc3ccc(C(F)(F)F)cc3)C(=O)N(C)CC(=O)N[C@@H](CCc3cc(F)c(C(F)(F)F)c(F)c3)C(=O)N2C1 [PP1287] | 49.7 nM | – | – | – | AA (a compound having 20 or more is denoted as AA) | 0.56 nM | A (a compound having 10 or more and less than 20 is denoted as A) | – |
| CC[C@H](C)[C@@H]1NC(=O)[C@H](CC2CC2)N(C)C(=O)C[C@@H](C(=O)N(C)C)N(C)C(=O)[C@H](C2CCCC2)N(C)C(=O)C2(CCCC2)NC(=O)[C@@H]2CCCN2C(=O)[C@H](CCc2cc(F)c(C(F)(F)F)c(F)c2)NC(=O)CN(C)C(=O)[C@H](Cc2ccc(C(F)(F)F)cc2)N2C[C@H](C)[C@H](C)C[C@@H](C2=O)N(C)C(=O)CN(C)C1=O [PP1368] | 2.9 nM | – | – | – | A (a compound having 10 or more and less than 20 is denoted as A) | 0.061 nM | B (a compound having 3 or more and less than 10 is denoted as B) | – |
| CC[C@H](C)[C@@H]1NC(=O)[C@H](COC)N(C)C(=O)C[C@@H](C(=O)N2CCCCC2)N(C)C(=O)[C@H](C2CCCC2)N(C)C(=O)C2(CC(C)(C)C2)NC(=O)[C@@H]2C[C@@H](OC(C)C)CN2C(=O)[C@H](CCc2cc(F)c(C(F)(F)F)c(F)c2)NC(=O)CN(C)C(=O)[C@H](Cc2ccc(C)cc2)N2CC/C=C\C[C@@H](C2=O)N(C)C(=O)CN(C)C1=O [PP2669] | 18.7 nM | A (a compound having 10 or more and less than 20 is denoted as A) | 0.29 nM | A (a compound having 10 or more and less than 20 is denoted as A) | – | – | – | – |
| CCO[C@@H]1C[C@H]2C(=O)NC3(CCC3)C(=O)N(C)[C@@H](C3CCCC3)C(=O)N(C)[C@H](C(=O)N3CCCC3)CC(=O)N(C)[C@@H](CC3CCCC3)C(=O)N[C@@H]([C@@H](C)CC)C(=O)N(C)CC(=O)N(C)[C@H]3C/C=C\CCN(C3=O)[C@@H](Cc3ccc(C)cc3)C(=O)N(C)CC(=O)N[C@@H](CCc3cc(F)c(C(F)(F)F)c(F)c3)C(=O)N2C1 [PP1412] | 23 nM | – | – | – | A (a compound having 10 or more and less than 20 is denoted as A) | 0.19 nM | A (a compound having 10 or more and less than 20 is denoted as A) | – |
| CCC(CC)[C@H]1C(=O)N(C)[C@H](C(=O)N(C)C)CC(=O)N(C)[C@@H](COC)C(=O)N[C@@H]([C@@H](C)CC)C(=O)N(C)CC(=O)N(C)[C@H]2C/C=C\CCN(C2=O)[C@@H](CC2CCCCC2)C(=O)N(C)CC(=O)N[C@@H](CCc2ccc(C(F)(F)F)c(OC)c2)C(=O)N2C[C@@H](C)C[C@H]2C(=O)NC2(CC(C)(C)C2)C(=O)N1C [PP2466] | 170 nM | – | – | – | – | – | – | NRAS/KRAS (ratio of KD value for NRAS to KD value for KRAS) [2, 6]: A (a compound having 10 or more and less than 20 is denoted as A); Kd ([3]; SPR, Single Cycle Kinetics): 3.9 nM; HRAS/KRAS (ratio of KD value for HRAS to KD value for KRAS) [4, 7]: A (a compound having 10 or more and less than 20 is denoted as A) |
| CCC[C@H]1C(=O)N[C@@H]([C@@H](C)CC)C(=O)N(C)CC(=O)N(C)[C@H]2C/C=C\CCN(C2=O)[C@@H](Cc2ccc(C(F)(F)F)cc2)C(=O)N(C)CC(=O)N[C@@H](CCc2ccc(C(F)(F)F)c(OC)c2)C(=O)N2C[C@H](OCC)C[C@H]2C(=O)NC2(CCC2)C(=O)N(C)[C@@H](C(CC)CC)C(=O)N(C)[C@H](C(=O)N(C)C)CC(=O)N1C [PP1208] | 24.4 nM | – | – | – | AA (a compound having 20 or more is denoted as AA) | 0.17 nM | A (a compound having 10 or more and less than 20 is denoted as A) | – |
